In US7968558B2, “Amidine derivatives of 2-heteroaryl-quinazolines and quinolines; potent analgesics and anti-inflammatory agents” (Rottapharm S.p.A., priority 2006, dated 2011):
Like-named read-outs stand apart in the source and are kept apart here.

Key:
[1] = test system: IL-1β induced PGE2 production; test: PGE2 production induced by IL-1β in chondrocyte cell culture; type: cell-based, rabbit; details: Oryctolagus cuniculus, Chondrocyte, read-out: Effects on PGE2 production in rabbit Chondrocyte culture, IC50
Text: Conversely, compounds of the invention are able to inhibit, at micromolar concentration, IL-1β induced PGE2 production in cellular systems. This inhibition effect on the production of the pro-inflammatory mediator PGE2, instead of to be ascribed to a direct COX-2 inhibition, as happens with Celecoxib and other COX-2 inhibitors, is in this case due to inhibition of cytokine induced COX-2 expression as proven in cellular systems.
Effectiveness in inhibition of PGE2 production induced by IL-1β in chondrocyte cell culture, as well as inhibition in IL-1β induced COX-2 expression in SW1353 human chondrosarcoma cell line, is summarized in Table 2, for representative compounds of the invention.

[2] = test system: IL-6 production; test: IL-6 production in IL-1 stimulated human chondrosarcoma cell line; type: cell-based; details: Compound concentration is 10 μM
Text: The compounds of the invention have been found effective in interfering with cytokine production in several cell lines, representative examples of this effect are reported in Table 3, for two representative cytokines, in IL-1 stimulated human chondrosarcoma cell line.

[3] = test system: Zymosan-induced mechanical hyperalgesia; test: Zymosan-induced mechanical hyperalgesia (Randall-Selitto); type: in vivo, rat; details: oral
Method: The interplantar injection of Zymosan-induced mechanical hyperalgesia was used as a model of inflammatory pain (Meller, Neuropharmacology, 1994, 33, 1471-1478). In this model, typically a male Sprague-Dawley or Wistar rat (200-250 g) receives an interplantar injection of 3 mg/100 μl zymosan into one hind paw. A marked inflammation occurs in this hind paw. Drugs are administered orally for evaluation of efficacy, 30 min. before the inflammatory insult. The hyperalgesia induced by zymosan administration was evaluated using the Randall-Selitto method (Arch. Int. Pharmacodyn., 1957, 111, 409). The quantitation of the analgesic effect is achieved by an analgesimeter, which consist in applying to the inflamed paw an increasing weight (from 130-140 g up to 500 g). The difference in the mechanical pain threshold between the basal value (generally 230-250 g) and the one tolerated by the animals treated with the drug, determined 4 hours after the inflammatory challenge, is defined as mechanical hyperalgesia.
Mechanical hyperalgesia is expressed for the compounds of the invention as ED50, which is the dose of the administered compound able to increase the pain threshold by 50% in comparison with the group of control animals. The corresponding ED100, representing the dose able of reducing of 100% the pain threshold, can be calculated for those cases where there is a linear dose-response relationship. In vivo anti-inflammatory effect exerted by the compound of the invention can be assessed in the same Zymosan induced inflammation test described above, by measuring the volume of the oedema induced by the inflammatory agent. The oedema was evaluated as the increase in the volume of the Zymosan injected paw within a time of 0-2 hrs. The measurements of the variation of the oedema volume of the paw were recorded using hydroplethysmometer, which consists of two plastic cuvettes containing a surfactant liquid, the larger one being used for immersion of the paw, connected to the smaller one which contains a trans-ducer capable of recording small displacements of the volume used for the measure. The paw is immersed in the cuvettes up to the tibiotarsal joint. The volume of the liquid displaced is proportional to the extent of the inflammation. The efficacy of the compounds of the invention in preventing oedema formation is expressed as ED30, and is measured 2 hours after the inflammatory challenge, and represents the dose able of reducing of 30%, the Zymosan induced paw volume increase in comparison to control animals (animals treated with Zymosan but treated with only distilled water instead of the testing compound). The corresponding ED50, representing the dose able of reducing of 50% the zymosan induced paw volume increase, can be calculated for those cases where there is a linear dose-response relationship.
In both the experiments, for each test compound, at least three doses were used, with 10 animals per group. Compounds of the invention were tested at 10, 20 and 40 mg/Kg.

[4] = test system: CFA-induced hyperalgesia; test: CFA model of chronic inflammatory pain; type: in vivo, rat
[5] = test system: acetic acid-induced abdominal writhes; test: Acetic acid-induced writhing test; type: in vivo, mice; details: for MPE (%): 30 min. before acetic acid
Method: With the aim of assessing whether the compounds of the invention are able to inhibit responses to peritoneal irritation-induced visceral pain, the acetic acid-induced writhing assay was used in mice to determine the degree of anti-nociception.
The writhing test is a model of inflammatory pain that has long been used as a screening tool for evaluation of analgesic and anti-inflammatory agents (HDJ Collier, B. J. Pharmacol Chemother., 1968, 32, 295-310). The test was performed inducing nociception by an i.p. injection of acetic acid 1%, 0.1 mL/10 g of body weight. Mice were pre-treated (subcutaneously, s.c., three different doses: 3, 10, 30 mg/Kg) with the tested compounds 30 min. before acetic acid injection, while control animals received a similar volume of saline solution. A group of mice was treated with Paracetamol (200 mg/Kg, s.c.) as reference drug. The number of abdominal writhes (full extension of both hind paws) was cumulatively counted every 5 minutes over a period of 20 min. immediately after the acetic acid injection. The anti-nociceptive activity was expressed as inhibition of abdominal writhes as maximum percent effect (MPE), which represents the difference (%) in pain threshold between the animals treated with the drug and the ones that received only the vehicle.

[6] = test system: formalin-induced paw licking; test: Formalin (licking) test; type: in vivo, mice; details: Mus musculus, ip, 1 hour before formalin
Method: The formalin test is increasingly used as a model of injury-produced pain (FV. Abbott, Pain, 1995, 60, 91-102). The procedure used for the evaluation of the compounds of the invention was similar to that reported by literature (S. Hunskaar, Pain, 1987, 30, 103-104), and consisted of the injection of 20 μl of 1% solution of formalin dissolved in distilled water, in the plantar surface of the right hind paw of the mice. Immediately, the animals were placed individually in an observation chamber. The amount of time that the animal spent licking the injected paw, considered indicative of pain, was recorded during 30 min. following formalin injection. The initial nociceptive scores normally peaked 5 min after formalin injection (early phase) and 15-30 min. after formalin injection (late phase), representing both the neurogenic and inflammatory pain responses respectively.
Animals were treated i.p. with an aqueous solution of the tested compound (doses: 3, 10, 30 mg/Kg), 1 hour before the formalin injection. Control animals received only the vehicle.
In Table 8, the analgesic effect elicited in this test by a representative compound of Formula (I), is expressed as ED50 both for the early and late phase, and compared with the performance of the standard reference, paracetamol.

For CC(=N)Nc1ccc2nc(-c3ccc4c(c3)OCO4)ncc2c1 [Example 1, N-[2-(1,3-benzodioxol-5-yl)quinazolin-6-yl]acetamidine], the IC50 [1] was 4.1 µM, the “Inhibition (%) of IL-6 production” value [2] was 65% and the ED50 ([3]; Rattus norvegicus, 30 min before zymosan, 4 hours after challenge, read-out: Analgesia ED50) was 6 mg/kg. The “Analgesia ED100” value ([3]; calculated from linear dose-response) was 18 mg/kg, the “MPE 0.5 hrs.” value ([4]; 3 mg/Kg i.p.) was 9% and the “MPE 0.5 hrs.” value ([4]; 10 mg/Kg i.p.) was 28%. The “MPE 1.5 hrs.” value ([4]; 10 mg/Kg i.p.) was 47%, the “MPE 3 hrs.” value ([4]; 10 mg/Kg i.p.) was 15% and the “MPE 6 hrs.” value ([4]; 10 mg/Kg i.p.) was 30%. For the same molecule, the “MPE 0.5 hrs.” value ([4]; 30 mg/Kg i.p.) was 418%, the “MPE 1.5 hrs.” value ([4]; 30 mg/Kg i.p.) was 395% and the “MPE 3 hrs.” value ([4]; 30 mg/Kg i.p.) was 384%. For the same molecule, the “MPE 6 hrs.” value ([4]; 30 mg/Kg i.p.) was 132%, the “MPE 24 hrs.” value ([4]; 30 mg/Kg i.p., 24 hrs.) was 60% and the “MPE (%)” value ([5]; 3 mg/Kg s.c.) was 30%. For the same molecule, the “MPE (%)” value ([5]; 10 mg/Kg s.c.) was 33%, the “MPE (%)” value ([5]; 30 mg/Kg s.c.) was 89% and the ED50 ([5]; Mus musculus, sc, writhing test, read-out: ED50) was 9.8 mg/kg. It also gave an ED50 ([6]; early phase, read-out: Analgesic effect ED50 (mg/Kg) Early phase) of 19 mg/kg and an ED50 ([6]; late phase, read-out: Analgesic effect ED50 (mg/Kg) Late phase) of 13 mg/kg.
